Experimental data reported in ChEMBL document CHEMBL4507307 (2021).
Activity calls are given as the source filed them. No cut-off for these calls is given here.

Columns and labels:
[1] = molecular target: Muscarinic acetylcholine receptor M3 (Homo sapiens) (UniProt P20309); conditions: Compound concentration 10.0 uM
[2] = molecular target: Muscarinic acetylcholine receptor M4 (Homo sapiens) (UniProt P08173); conditions: Compound concentration 10.0 uM
[3] = molecular target: Dual specificity protein kinase CLK1 (Homo sapiens, UniProt P49759); assay: NanoBRET (SGC Frankfurt) (CLK1)
D(1A) dopamine receptor = D(1A) dopamine receptor (Homo sapiens, UniProt P21728); conditions: Compound concentration 10.0 uM
[4] = molecular target: D(4) dopamine receptor (Homo sapiens) (UniProt P21917); conditions: Compound concentration 10.0 uM
[5] = molecular target: 5-hydroxytryptamine receptor 2B (Homo sapiens) (UniProt P41595); conditions: Compound concentration 10.0 uM
Histamine H1 receptor [6] = molecular target: T1, Histamine H1 receptor (Homo sapiens, UniProt P35367); conditions: Compound concentration 10.0 uM
[7] = molecular target: Sodium-dependent serotonin transporter (Homo sapiens) (UniProt P31645); conditions: Compound concentration 10.0 uM
[8] = molecular target: Sigma intracellular receptor 2 (Homo sapiens, UniProt Q5BJF2); conditions: Compound concentration 10.0 uM
Mu-type opioid receptor = Mu-type opioid receptor (Homo sapiens, UniProt P35372); conditions: Compound concentration 10.0 uM
[9] = molecular target: 5-hydroxytryptamine receptor 1E (Homo sapiens, UniProt P28566); conditions: Compound concentration 10.0 uM
[10] = molecular target: 5-hydroxytryptamine receptor 2C (Homo sapiens) (UniProt P28335); conditions: Compound concentration 10.0 uM
[11] = molecular target: Delta-type opioid receptor (Homo sapiens) (UniProt P41143); conditions: Compound concentration 10.0 uM
[12] = molecular target: 5-hydroxytryptamine receptor 2A (Homo sapiens, UniProt P28223); conditions: Compound concentration 10.0 uM
[13] = molecular target: Receptor-type tyrosine-protein kinase FLT3 (Homo sapiens, UniProt P36888); assay: NanoBRET (SGC Frankfurt) (FLT3)
[14] = molecular target: Beta-2 adrenergic receptor (Homo sapiens) (UniProt P07550); conditions: Compound concentration 10.0 uM
[15] = molecular target: Alpha-2B adrenergic receptor (Homo sapiens) (UniProt P18089); conditions: Compound concentration 10.0 uM
[16] = molecular target: Alpha-2C adrenergic receptor (Homo sapiens) (UniProt P18825); conditions: Compound concentration 10.0 uM
[17] = molecular target: Kappa-type opioid receptor (Homo sapiens, UniProt P41145); conditions: Compound concentration 10.0 uM
[18] = molecular target: Sigma non-opioid intracellular receptor 1 (Homo sapiens, UniProt Q99720); conditions: Compound concentration 10.0 uM
[19] = molecular target: T2, GABA-A receptor; anion channel (Rattus norvegicus) (UniProt O09028+P15431+P18506+P18508+P19969+P20236+P23574+P23576+P28471+P28473+P30191+P62813+P63079+P63138+Q91ZM7+Q9ES14); conditions: Compound concentration 10.0 uM
[20] = molecular target: Histamine H4 receptor (Homo sapiens) (UniProt Q9H3N8); conditions: Compound concentration 10.0 uM
[21] = molecular target: 5-hydroxytryptamine receptor 1D (Homo sapiens, UniProt P28221); conditions: Compound concentration 10.0 uM
[22] = molecular target: Alpha-1B adrenergic receptor (Homo sapiens) (UniProt P35368); conditions: Compound concentration 10.0 uM
[23] = molecular target: Alpha-1A adrenergic receptor (Homo sapiens) (UniProt P35348); conditions: Compound concentration 10.0 uM
[24] = molecular target: 5-hydroxytryptamine receptor 3A (Homo sapiens) (UniProt P46098); conditions: Compound concentration 10.0 uM
[25] = molecular target: T2, GABA-A receptor; anion channel (Rattus norvegicus); conditions: Compound concentration 10.0 uM; remark: listed apart in the source
[26] = molecular target: Sodium-dependent noradrenaline transporter (Homo sapiens) (UniProt P23975); conditions: Compound concentration 10.0 uM
[27] = molecular target: 5-hydroxytryptamine receptor 1B (Homo sapiens, UniProt P28222); conditions: Compound concentration 10.0 uM
Histamine H1 receptor [28] = molecular target: T1, Histamine H1 receptor; assay: GPCRScan assay: inhibition of H1; design: radioligand conc. used [nm] 0.6 – 2.0, parental cells stable HEK
[29] = molecular target: Histamine H3 receptor (Homo sapiens) (UniProt Q9Y5N1); conditions: Compound concentration 10.0 uM
Histamine H2 receptor = Histamine H2 receptor (Homo sapiens, UniProt P25021); conditions: Compound concentration 10.0 uM
[30] = molecular target: Sodium-dependent dopamine transporter (Homo sapiens) (UniProt Q01959); conditions: Compound concentration 10.0 uM
[31] = molecular target: Beta-1 adrenergic receptor (Homo sapiens) (UniProt P08588); conditions: Compound concentration 10.0 uM
[32] = molecular target: Dual specificity tyrosine-phosphorylation-regulated kinase 1A (Homo sapiens, UniProt Q13627); assay: NanoBRET (SGC Frankfurt) (DYRK1A)
D(2) dopamine receptor = D(2) dopamine receptor (Homo sapiens, UniProt P14416); conditions: Compound concentration 10.0 uM
[33] = molecular target: Dual specificity protein kinase CLK4 (Homo sapiens, UniProt Q9HAZ1); assay: NanoBRET (SGC Frankfurt) (CLK4)
[34] = molecular target: 5-hydroxytryptamine receptor 7 (Homo sapiens) (UniProt P34969); conditions: Compound concentration 10.0 uM
[35] = molecular target: D(1B) dopamine receptor (Homo sapiens) (UniProt P21918); conditions: Compound concentration 10.0 uM
[36] = molecular target: Dual specificity tyrosine-phosphorylation-regulated kinase 1B (Homo sapiens, UniProt Q9Y463); assay: NanoBRET (SGC Frankfurt) (DYRK1B)
[37] = molecular target: Receptor-type tyrosine-protein kinase FLT3 (Homo sapiens, UniProt P36888, D835V); assay: NanoBRET (SGC Frankfurt) (FLT3 (D835V))
[38] = molecular target: Serine/threonine-protein kinase SIK2 (Homo sapiens, UniProt Q9H0K1); assay: NanoBRET (SGC Frankfurt) (SIK2)
[39] = molecular target: Muscarinic acetylcholine receptor M2 (Homo sapiens) (UniProt P08172); conditions: Compound concentration 10.0 uM
D(3) dopamine receptor = D(3) dopamine receptor (Homo sapiens, UniProt P35462); conditions: Compound concentration 10.0 uM

T1 sequence (P35367 whole entry): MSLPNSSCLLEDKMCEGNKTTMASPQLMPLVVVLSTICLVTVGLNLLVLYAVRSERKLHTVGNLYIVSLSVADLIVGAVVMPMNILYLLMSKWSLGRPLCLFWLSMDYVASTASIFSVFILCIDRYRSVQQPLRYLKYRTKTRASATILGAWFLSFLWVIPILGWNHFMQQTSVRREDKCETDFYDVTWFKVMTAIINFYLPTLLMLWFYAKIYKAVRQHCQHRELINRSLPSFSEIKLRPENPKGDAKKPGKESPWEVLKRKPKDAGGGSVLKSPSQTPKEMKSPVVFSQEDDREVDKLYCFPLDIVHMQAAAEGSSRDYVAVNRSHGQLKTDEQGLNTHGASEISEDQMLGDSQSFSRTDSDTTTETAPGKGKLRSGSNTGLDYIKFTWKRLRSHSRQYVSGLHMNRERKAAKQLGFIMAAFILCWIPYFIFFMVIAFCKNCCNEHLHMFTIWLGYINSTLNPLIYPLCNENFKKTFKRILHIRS
Chain of 5-hydroxytryptamine receptor 2C (Homo sapiens) (P28335 whole entry): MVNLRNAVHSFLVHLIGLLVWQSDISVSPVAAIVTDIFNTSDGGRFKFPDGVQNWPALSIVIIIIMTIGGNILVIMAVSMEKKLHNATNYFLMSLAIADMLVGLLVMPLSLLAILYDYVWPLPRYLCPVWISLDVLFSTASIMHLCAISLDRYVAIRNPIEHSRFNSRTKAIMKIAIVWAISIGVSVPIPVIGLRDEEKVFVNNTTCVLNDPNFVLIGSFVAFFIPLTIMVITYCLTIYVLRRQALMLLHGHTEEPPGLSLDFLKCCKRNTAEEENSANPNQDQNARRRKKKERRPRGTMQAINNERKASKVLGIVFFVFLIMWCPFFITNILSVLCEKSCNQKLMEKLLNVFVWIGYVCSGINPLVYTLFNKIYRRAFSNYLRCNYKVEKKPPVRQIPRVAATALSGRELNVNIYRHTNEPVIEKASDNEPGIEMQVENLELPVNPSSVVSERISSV
Chain of Kappa-type opioid receptor (P41145 whole entry): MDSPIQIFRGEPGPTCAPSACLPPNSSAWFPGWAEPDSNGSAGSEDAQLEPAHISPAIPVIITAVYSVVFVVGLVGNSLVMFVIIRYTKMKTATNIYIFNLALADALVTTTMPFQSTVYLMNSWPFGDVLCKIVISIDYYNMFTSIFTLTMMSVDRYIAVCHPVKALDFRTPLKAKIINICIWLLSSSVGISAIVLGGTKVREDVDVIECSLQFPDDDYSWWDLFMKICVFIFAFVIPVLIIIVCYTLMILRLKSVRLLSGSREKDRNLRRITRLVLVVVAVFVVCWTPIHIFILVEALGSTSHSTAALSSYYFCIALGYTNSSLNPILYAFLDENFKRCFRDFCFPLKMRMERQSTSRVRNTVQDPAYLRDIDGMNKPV
Chain of Beta-2 adrenergic receptor (Homo sapiens) (P07550 whole entry, looked up): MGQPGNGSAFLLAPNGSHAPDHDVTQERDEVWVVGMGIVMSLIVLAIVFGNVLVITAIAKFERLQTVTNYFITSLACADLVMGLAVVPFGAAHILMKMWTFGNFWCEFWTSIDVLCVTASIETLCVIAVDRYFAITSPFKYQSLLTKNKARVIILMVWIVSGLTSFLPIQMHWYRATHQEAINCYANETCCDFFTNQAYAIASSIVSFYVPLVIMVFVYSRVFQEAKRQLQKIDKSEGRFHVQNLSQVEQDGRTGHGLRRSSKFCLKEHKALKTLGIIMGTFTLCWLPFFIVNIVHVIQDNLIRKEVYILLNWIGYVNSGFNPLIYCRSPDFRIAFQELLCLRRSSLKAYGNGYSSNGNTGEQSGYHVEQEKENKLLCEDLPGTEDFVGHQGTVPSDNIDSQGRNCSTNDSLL
Chain of Alpha-1B adrenergic receptor (Homo sapiens) (P35368 whole entry): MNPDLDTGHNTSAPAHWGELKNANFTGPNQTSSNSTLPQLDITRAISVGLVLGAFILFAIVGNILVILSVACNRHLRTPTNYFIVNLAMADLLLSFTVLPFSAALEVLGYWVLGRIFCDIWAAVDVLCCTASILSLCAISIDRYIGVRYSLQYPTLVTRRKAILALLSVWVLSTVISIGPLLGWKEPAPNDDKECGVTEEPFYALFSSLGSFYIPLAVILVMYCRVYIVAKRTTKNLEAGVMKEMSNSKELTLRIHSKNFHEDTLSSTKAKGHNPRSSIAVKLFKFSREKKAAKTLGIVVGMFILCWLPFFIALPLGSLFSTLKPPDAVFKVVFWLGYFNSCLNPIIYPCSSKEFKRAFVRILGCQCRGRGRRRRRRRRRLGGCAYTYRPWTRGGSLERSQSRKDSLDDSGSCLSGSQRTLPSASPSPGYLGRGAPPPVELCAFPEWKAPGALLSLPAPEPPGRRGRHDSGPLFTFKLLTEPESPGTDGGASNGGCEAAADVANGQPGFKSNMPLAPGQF
Chain of 5-hydroxytryptamine receptor 1E (P28566 whole entry): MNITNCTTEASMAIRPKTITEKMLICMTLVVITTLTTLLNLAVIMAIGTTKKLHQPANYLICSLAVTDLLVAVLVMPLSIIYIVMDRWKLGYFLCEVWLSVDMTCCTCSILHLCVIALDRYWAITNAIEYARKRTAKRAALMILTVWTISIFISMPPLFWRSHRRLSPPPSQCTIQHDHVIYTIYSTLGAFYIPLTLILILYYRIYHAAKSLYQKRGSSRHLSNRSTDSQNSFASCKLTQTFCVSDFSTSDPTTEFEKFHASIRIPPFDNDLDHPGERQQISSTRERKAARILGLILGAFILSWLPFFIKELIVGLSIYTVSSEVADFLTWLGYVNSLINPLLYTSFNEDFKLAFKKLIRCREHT
Chain of Muscarinic acetylcholine receptor M3 (Homo sapiens) (P20309 whole entry, looked up): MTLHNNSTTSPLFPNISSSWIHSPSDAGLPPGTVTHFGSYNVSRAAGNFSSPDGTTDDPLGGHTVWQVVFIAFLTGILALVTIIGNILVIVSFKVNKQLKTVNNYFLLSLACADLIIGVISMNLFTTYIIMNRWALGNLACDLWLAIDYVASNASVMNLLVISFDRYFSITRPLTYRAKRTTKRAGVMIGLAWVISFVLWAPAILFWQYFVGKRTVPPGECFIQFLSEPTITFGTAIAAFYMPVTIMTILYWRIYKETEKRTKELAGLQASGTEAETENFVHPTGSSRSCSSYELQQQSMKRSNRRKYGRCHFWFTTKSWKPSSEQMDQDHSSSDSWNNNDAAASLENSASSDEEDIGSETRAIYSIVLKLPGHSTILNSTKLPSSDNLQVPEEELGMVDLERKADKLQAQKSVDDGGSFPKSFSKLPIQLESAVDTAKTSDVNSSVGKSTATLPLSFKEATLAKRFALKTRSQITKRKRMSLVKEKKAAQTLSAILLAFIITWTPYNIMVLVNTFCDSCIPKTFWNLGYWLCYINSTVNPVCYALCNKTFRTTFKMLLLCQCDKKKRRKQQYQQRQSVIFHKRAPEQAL
Chain of 5-hydroxytryptamine receptor 7 (Homo sapiens) (P34969 whole entry): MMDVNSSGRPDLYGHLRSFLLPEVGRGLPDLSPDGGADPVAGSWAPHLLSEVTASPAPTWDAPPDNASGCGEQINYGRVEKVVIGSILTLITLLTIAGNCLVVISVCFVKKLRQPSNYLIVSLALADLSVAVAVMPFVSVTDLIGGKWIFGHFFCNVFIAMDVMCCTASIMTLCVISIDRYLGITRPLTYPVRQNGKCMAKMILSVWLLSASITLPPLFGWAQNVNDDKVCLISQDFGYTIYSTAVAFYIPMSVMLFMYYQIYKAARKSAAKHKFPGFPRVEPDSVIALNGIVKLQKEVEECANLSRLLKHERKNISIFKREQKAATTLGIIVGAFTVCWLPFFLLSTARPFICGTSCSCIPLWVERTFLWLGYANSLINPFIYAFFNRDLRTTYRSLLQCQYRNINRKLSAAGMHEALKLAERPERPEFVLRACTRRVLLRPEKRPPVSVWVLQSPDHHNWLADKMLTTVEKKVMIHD
Chain of Sodium-dependent dopamine transporter (Homo sapiens) (Q01959 whole entry): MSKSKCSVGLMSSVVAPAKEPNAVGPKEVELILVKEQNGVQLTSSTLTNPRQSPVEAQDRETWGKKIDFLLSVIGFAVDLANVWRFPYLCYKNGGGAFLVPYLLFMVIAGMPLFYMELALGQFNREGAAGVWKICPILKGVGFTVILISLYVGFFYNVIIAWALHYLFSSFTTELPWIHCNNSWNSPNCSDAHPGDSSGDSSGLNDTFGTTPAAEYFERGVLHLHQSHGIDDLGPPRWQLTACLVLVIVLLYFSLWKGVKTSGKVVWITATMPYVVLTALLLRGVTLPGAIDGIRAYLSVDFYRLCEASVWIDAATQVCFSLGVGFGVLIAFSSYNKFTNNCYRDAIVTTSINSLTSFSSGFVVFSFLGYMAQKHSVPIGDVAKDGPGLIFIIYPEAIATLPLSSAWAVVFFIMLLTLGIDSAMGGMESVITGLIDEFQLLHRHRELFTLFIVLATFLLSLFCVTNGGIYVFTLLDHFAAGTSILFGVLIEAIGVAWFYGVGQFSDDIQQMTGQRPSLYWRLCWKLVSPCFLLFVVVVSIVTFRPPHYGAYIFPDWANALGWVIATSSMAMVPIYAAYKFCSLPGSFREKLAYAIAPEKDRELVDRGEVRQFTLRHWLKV
Chain of D(1B) dopamine receptor (Homo sapiens) (P21918 whole entry): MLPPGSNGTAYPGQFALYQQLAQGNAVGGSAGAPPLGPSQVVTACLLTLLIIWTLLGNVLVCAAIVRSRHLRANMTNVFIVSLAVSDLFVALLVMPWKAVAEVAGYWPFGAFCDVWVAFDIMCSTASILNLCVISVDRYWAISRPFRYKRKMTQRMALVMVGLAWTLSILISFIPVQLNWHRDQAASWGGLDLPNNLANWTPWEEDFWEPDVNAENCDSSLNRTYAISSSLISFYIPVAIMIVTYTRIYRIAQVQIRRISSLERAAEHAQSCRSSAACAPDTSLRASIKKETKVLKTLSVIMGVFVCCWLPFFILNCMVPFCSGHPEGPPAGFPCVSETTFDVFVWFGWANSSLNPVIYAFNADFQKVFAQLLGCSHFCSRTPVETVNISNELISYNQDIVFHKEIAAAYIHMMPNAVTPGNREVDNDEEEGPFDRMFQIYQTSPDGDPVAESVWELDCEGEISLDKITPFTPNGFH
Chain of Sigma intracellular receptor 2 (Q5BJF2 whole entry): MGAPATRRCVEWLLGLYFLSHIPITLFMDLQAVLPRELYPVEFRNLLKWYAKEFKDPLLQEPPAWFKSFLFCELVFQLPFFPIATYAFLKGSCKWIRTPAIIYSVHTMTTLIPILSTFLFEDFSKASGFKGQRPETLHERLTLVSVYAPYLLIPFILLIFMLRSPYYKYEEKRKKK

Structure (SMILES): CN1CCN(C(=O)C(C)(C)c2ccc(C(=O)Nc3cn4cc(-c5cc(C(C)(C)C)cc(C(C)(C)C)c5)ccc4n3)cc2)CC1 [T3-CLK-N]
- inhibition [1]: 40.4%
- inhibition [2]: 0.99%
- IC50 [3]: > 10000 nM (not active)
- inhibition (D(1A) dopamine receptor): 58.2%
- inhibition [4]: 34.8%
- inhibition [5]: 44.1%
- inhibition (Histamine H1 receptor [6]): 83%
- inhibition [7]: 26.3%
- inhibition [8]: 97.9%
- inhibition (Mu-type opioid receptor): 55.7%
- inhibition [9]: 60.5%
- inhibition [10]: 83%
- inhibition [11]: 46.2%
- inhibition [12]: 92.3%
- IC50 [13]: > 10000 nM (not active)
- inhibition [14]: 17.2%
- inhibition [15]: 77.6%
- inhibition [16]: 88.5%
- inhibition [17]: 54.4%
- inhibition [18]: 90%
- inhibition [19]: 4.08%
- inhibition [20]: 31.9%
- inhibition [21]: 50.5%
- inhibition [22]: 50.5%
- inhibition [23]: 66.4%
- inhibition [24]: 6.47%
- inhibition [25]: 13.5%
- inhibition [26]: 40.8%
- inhibition [27]: 66.9%
- Ki (Histamine H1 receptor [28]; read-out: Ki): 1900 nM
- Ki (Histamine H1 receptor [28]; read-out: pKi (converted)): 1320 nM
- inhibition [29]: 43.8%
- inhibition (Histamine H2 receptor): 86.8%
- inhibition [30]: -0.51%
- inhibition [31]: 28%
- IC50 [32]: > 10000 nM (not active)
- inhibition (D(2) dopamine receptor): 57.5%
- IC50 [33]: > 10000 nM (not active)
- inhibition [34]: 45.2%
- inhibition [35]: 29.7%
- IC50 [36]: > 10000 nM (not active)
- IC50 [37]: > 10000 nM (not active)
- IC50 [38]: > 10000 nM (not active)
- inhibition [39]: 6.55%
- inhibition (D(3) dopamine receptor): 78.9%

Structure (SMILES): CN1CCN(C(=O)C(C)(C)c2ccc(C(=O)Nc3cn4cc(-c5ccncc5)ccc4n3)cc2)CC1 [T3-CLK]
- inhibition [1]: 21.1%
- inhibition [2]: 25.2%
- IC50 [3]: 3.49 nM (active)
- inhibition (D(1A) dopamine receptor): 4.41%
- inhibition [4]: 9.12%
- inhibition [5]: -7.63%
- inhibition (Histamine H1 receptor [6]): 54.9%
- inhibition [7]: -3.55%
- inhibition [8]: 13.4%
- inhibition (Mu-type opioid receptor): 5.33%
- inhibition [9]: -1.52%
- inhibition [10]: 12.4%
- inhibition [11]: 4.05%
- inhibition [12]: -2.63%
- IC50 [13]: 668 nM (not active)
- inhibition [14]: 16.6%
- inhibition [15]: 19.3%
- inhibition [16]: 17.2%
- inhibition [17]: -6.32%
- inhibition [18]: 16.9%
- inhibition [19]: -5.11%
- inhibition [20]: 0.74%
- inhibition [21]: 5.95%
- inhibition [22]: 4.68%
- inhibition [23]: -5.18%
- inhibition [24]: 1.81%
- inhibition [25]: 7.47%
- inhibition [26]: 5.3%
- inhibition [27]: 7.83%
- Ki (Histamine H1 receptor [28]; read-out: Ki): 2150 nM
- inhibition [29]: 16.6%
- inhibition (Histamine H2 receptor): 19.4%
- inhibition [30]: 8.33%
- inhibition [31]: -7.22%
- IC50 [32]: 32 nM
- inhibition (D(2) dopamine receptor): 10.8%
- IC50 [33]: 1.98 nM (active)
- inhibition [34]: -5.21%
- inhibition [35]: -7.3%
- IC50 [36]: 67 nM
- IC50 [37]: 138 nM (not active)
- IC50 [38]: 125 nM (not active)
- inhibition [39]: 3.82%
- inhibition (D(3) dopamine receptor): 12.8%
